The source made the active and inactive calls. How the calls were made is not given here.

The record followed here is PubChem BioAssay AID2745 (NMMLSC, 2010).

The nature of the assay: LAP4-GFP modulation potency in yeast, dose response, cell-based, MLPCN hits, flow cytometry (AID 2745).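 Further: yeast exposed to compound for three hours at 30 degrees.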 The following applies: S. cerevisiae LAP4-GFP reporter, flow cytometry fluorescence; at 33 µM (top of the series). For orientation: In flow cytometry, cells or beads pass a laser one at a time.

`COc1cc(/C=C2/C(=O)c3cccc([N+](=O)[O-])c3C2=O)c(Br)cc1O`: the LAP4-GFP fluorescence (kMESF) is 3.64 kMESF (inactive).

In the case of `COc1ccc(CCNC2=C(Cl)C(=O)N(CCc3ccc(OC)c(OC)c3)C2=O)cc1OC`, the LAP4-GFP fluorescence (kMESF) was 5.91 kMESF (inactive).

In the case of `O=C(NCc1ccc2c(c1)OCO2)c1nc(S(=O)(=O)Cc2ccccc2)ncc1Cl`, the LAP4-GFP fluorescence (kMESF) was 4.7 kMESF (inactive).

With `Cc1cc(Br)c2c(c1)/C(=C/C(=O)c1cccs1)C(=O)N2`, the LAP4-GFP fluorescence (kMESF) is 6.22 kMESF (inactive).

For `CCN(CC)c1ccc2cc(-c3nc(-c4ccc(OC)cc4)cs3)c(=O)oc2c1`, the LAP4-GFP fluorescence (kMESF) is 1.57 kMESF (inactive).

In the case of `CCN(CC(=O)NC(C)(C)C)C(=O)COc1c(Cl)cc(Cl)c2ccc(C)nc12`, the LAP4-GFP fluorescence (kMESF) is 11.7 kMESF (inactive).

With `CCCCC(=O)NC(=S)NNC(=O)CCc1ccccc1`, the LAP4-GFP fluorescence (kMESF) was 8.13 kMESF (inactive).

`O=C1c2cccc3c([N+](=O)[O-])ccc(c23)C(=O)N1O`: the LAP4-GFP fluorescence (kMESF) is 3.64 kMESF (inactive).

`CC(C)[C@@]1(c2ccc(Cl)cc2)ON(c2ccccc2C(F)(F)F)C1=O`: the LAP4-GFP fluorescence (kMESF) was 3.53 kMESF (inactive).

In the case of `COc1cc(N=c2ssnc2Cl)cc(OC)c1`, the LAP4-GFP fluorescence (kMESF) is 11.3 kMESF (inactive).

On to `O=C1C=CC(=O)N1c1ccc(Sc2ccc([N+](=O)[O-])cc2)cc1`, for which the LAP4-GFP fluorescence (kMESF) was 5.47 kMESF (inactive).

Turning to `Oc1cc(-c2ccc(N3CCCCC3)nc2)cc2cccnc12`, the LAP4-GFP fluorescence (kMESF) is 4.15 kMESF (inactive).

Consider `Cc1[nH][nH]c(=O)c1C(c1ccc(-c2ccc(Cl)c(Cl)c2)o1)c1c(C)[nH][nH]c1=O`, for which the LAP4-GFP fluorescence (kMESF) was 6.01 kMESF (inactive).

Turning to `C=CCN1C(=O)/C(=C/c2ccc(-c3ccc(F)cc3)o2)SC1=S`, the LAP4-GFP fluorescence (kMESF) is 15 kMESF (inactive).

Turning to `Cc1ccc(C(CC(=O)O)NC(=O)c2ccc(S(=O)(=O)N3CC(C)OC(C)C3)cc2)cc1` (stereo unspecified), the LAP4-GFP fluorescence (kMESF) was 3.28 kMESF (inactive).

`O=C(Nc1nnc(-c2ccc(F)cc2)o1)c1cccc([N+](=O)[O-])c1`: the LAP4-GFP fluorescence (kMESF) is 6.91 kMESF (inactive).

Take `CCCc1cc(N2CCN(c3ccccn3)CC2)n2nc(C)c(-c3ccccc3)c2n1`: the LAP4-GFP fluorescence (kMESF) was 5.75 kMESF (inactive).

Turning to `O=C(O)c1ccc(COc2ccccc2C=C2C(=O)c3ccccc3C2=O)cc1`, the LAP4-GFP fluorescence (kMESF) is 4.11 kMESF (inactive).

As to `O=C(Oc1ccnc2cc(Cl)ccc12)N1CCOCC1`, the LAP4-GFP fluorescence (kMESF) is 2.63 kMESF (inactive).

As for `COc1ccc(N2C(=O)C(Cl)=C(Nc3c(C)n(C)n(-c4ccccc4)c3=O)C2=O)cc1`, the LAP4-GFP fluorescence (kMESF) was 4.31 kMESF (inactive).

Consider `COc1ccccc1N1C(=O)c2cccc3c(C(=O)O)ccc(c23)C1=O`, for which the LAP4-GFP fluorescence (kMESF) was 6.85 kMESF (inactive).

For the compound `C#CCOCCOCCOCCNc1nc(N2CCN(C(=O)CCCCCCCCCCNC(=O)[C@H](CCCCN)n3cc(CCO)nn3)CC2)nc(N2CCN(C(=O)CCCCCCCCCCNC(=O)[C@H](CCCCN)n3cc(C[C@@H](C)CC)nn3)CC2)n1`, the LAP4-GFP fluorescence (kMESF) was 5.86 kMESF (inactive).

In the case of `Cc1ccc(NC(=O)c2cc(N3C(=O)C=CC3=O)ccc2Cl)cc1C`, the LAP4-GFP fluorescence (kMESF) was 4.75 kMESF (inactive).

Turning to `O=c1c(-c2ccc(Cl)cc2)[n+]([O-])c2ccccc2n1O`, the LAP4-GFP fluorescence (kMESF) is 16.1 kMESF (inactive).

In the case of `O=C(c1ccc([N+](=O)[O-])o1)N1CCN(c2nc3c(F)cc(F)cc3s2)CC1`, the LAP4-GFP fluorescence (kMESF) is -0.9 kMESF (inactive).

`O=C1N(c2ccccc2C(F)(F)F)O[C@@]1(c1ccccc1)C1CCCCC1`: the LAP4-GFP fluorescence (kMESF) was 2.73 kMESF (inactive).

`CCn1c(=O)c(C(C)=O)c(O)c2ccccc21`: the LAP4-GFP fluorescence (kMESF) is 6.66 kMESF (inactive).

For the compound `Cc1ccc(C(=O)NNC(=S)NC(=O)c2ccco2)cc1`, the LAP4-GFP fluorescence (kMESF) was 7.42 kMESF (inactive).

With `COc1ccc(OCC(=O)NNC(=S)NC(=O)C2CCCCC2)cc1`, the LAP4-GFP fluorescence (kMESF) was 14.4 kMESF (inactive).

With `O=C1CC(c2ccccc2)=NN1c1nc(-c2ccccc2)cs1`, the LAP4-GFP fluorescence (kMESF) was 3.94 kMESF (inactive).

With `N/C(=N\OC(=O)c1ccccc1Cl)c1ccc(Cl)cc1`, the LAP4-GFP fluorescence (kMESF) is 11.3 kMESF (inactive).

For the compound `O=C(Nc1cccc(C(F)(F)F)c1)Oc1ccc(Cl)c2cccnc12`, the LAP4-GFP fluorescence (kMESF) was 12.8 kMESF (inactive).

With `COc1ccc(C(=O)NC(=S)NNC(=O)c2cnccn2)cc1OC`, the LAP4-GFP fluorescence (kMESF) was 9.2 kMESF (inactive).

As to `Cc1cc(O)c(C(=O)/C=C/c2c(F)c(F)c(F)c(F)c2F)c(=O)o1`, the LAP4-GFP fluorescence (kMESF) is 7 kMESF (inactive).

For the compound `O=C1C(Cl)=C(N2CCN(Cc3ccccc3)CC2)C(=O)N1c1ccccc1`, the LAP4-GFP fluorescence (kMESF) is 4.11 kMESF (inactive).

Consider `Cc1nc2ccc(NC(=O)c3oc4ccc(F)cc4c3C)cc2s1`, for which the LAP4-GFP fluorescence (kMESF) was 3.28 kMESF (inactive).

As to `O=C(NOC(=O)c1ccccc1)c1ccccc1`, the LAP4-GFP fluorescence (kMESF) is 10.6 kMESF (inactive).

For the compound `O=C1N(c2ccccc2C(F)(F)F)O[C@]1(c1ccccc1)C1CCCC1`, the LAP4-GFP fluorescence (kMESF) is 3.98 kMESF (inactive).

`Cc1cccc(OCCN2CSC(=S)N(C)C2)c1`: the LAP4-GFP fluorescence (kMESF) is 9.83 kMESF (inactive).

With `COc1cccc(/C=C2\C(=O)N(c3cccc(C)c3)C(=O)c3ccccc32)c1`, the LAP4-GFP fluorescence (kMESF) was 9.02 kMESF (inactive).

Turning to `C=CCOc1ccccc1C(=O)/C=C1/C(=O)Nc2ccccc21`, the LAP4-GFP fluorescence (kMESF) was 10.2 kMESF (inactive).

`O=C1CCN(S(=O)(=O)c2ccccc2)CCN1CCOCc1ccc(F)cc1`: the LAP4-GFP fluorescence (kMESF) was 2.43 kMESF (inactive).

`C/C(=N\Nc1ncnc2sc(C)c(C)c12)c1ccccn1`: the LAP4-GFP fluorescence (kMESF) was -7.63 kMESF (inactive).

Turning to `COc1cc(NC(=O)c2ccc(C)cc2)ccc1NC(=O)c1cc2ccccc2o1`, the LAP4-GFP fluorescence (kMESF) is 3.61 kMESF (inactive).

In the case of `N=C1/C(=C\c2coc3ccccc3c2=O)C(=O)N=C2SC(c3ccncc3)=NN12`, the LAP4-GFP fluorescence (kMESF) is -3.74 kMESF (inactive).

In the case of `COc1ccc(/C=C/C(=O)c2cc(Br)ccc(=O)c2O)cc1`, the LAP4-GFP fluorescence (kMESF) was -33.8 kMESF (inactive).

`O=c1[nH]c(-c2ccc(Cl)cc2)cs1`: the LAP4-GFP fluorescence (kMESF) is 3.03 kMESF (inactive).

For the compound `CCc1cccc2sc(N3CCN(C(=O)c4ccc([N+](=O)[O-])o4)CC3)nc12`, the LAP4-GFP fluorescence (kMESF) was -0.3 kMESF (inactive).

Take `N/C(=N\OC(=O)c1cc(Br)ccc1Cl)c1ccccn1`: the LAP4-GFP fluorescence (kMESF) was 12.2 kMESF (inactive).

`Cc1ccc2nc(/C(C#N)=C/c3ccc(O)c(O)c3)[nH]c2c1`: the LAP4-GFP fluorescence (kMESF) was 4.39 kMESF (inactive).

In the case of `CC(C)(C)C(=O)NC(=S)NNC(=O)c1sc2ccccc2c1Cl`, the LAP4-GFP fluorescence (kMESF) is 8.89 kMESF (inactive).

For `N#Cc1cc([N+](=O)[O-])c(-n2nnc3ccccc32)c([N+](=O)[O-])c1`, the LAP4-GFP fluorescence (kMESF) was 14.5 kMESF (inactive).

Take `Cc1cccc(/C=C/C(=O)c2ccc([N+](=O)[O-])o2)c1`: the LAP4-GFP fluorescence (kMESF) is 9.32 kMESF (inactive).

Regarding `O=C(Oc1cccc2cccnc12)c1ccc(Br)o1`, the LAP4-GFP fluorescence (kMESF) was 3.74 kMESF (inactive).

On to `Cc1ccc2c(nc3s/c(=C\c4ccc(-c5ccccc5C(=O)O)o4)c(=O)n32)c1C`, for which the LAP4-GFP fluorescence (kMESF) was 15.5 kMESF (inactive).

Regarding `Oc1c(Br)cc(Br)cc1C=Nc1ccc2[nH]ncc2c1`, the LAP4-GFP fluorescence (kMESF) was 13.1 kMESF (inactive).

As to `C#CCOCCOCCOCCNc1nc(N2CCN(C(=O)CCCCCCCCCCNC(=O)[C@H](CCCCN)n3cc(C)nn3)CC2)nc(N2CCN(C(=O)CCCCCCCCCCNC(=O)[C@H](CCCN=C(N)N)n3cc(C[C@@H](C)CC)nn3)CC2)n1`, the LAP4-GFP fluorescence (kMESF) was 6.77 kMESF (inactive).

For the compound `O=C(Nc1cccc(-c2csc(Nc3ccccc3)n2)c1)c1ccccc1`, the LAP4-GFP fluorescence (kMESF) was 4.18 kMESF (inactive).

As for `CC(c1ccccc1)N1C(=O)/C(=C/c2ccncc2)SC1=S` (stereo unspecified), the LAP4-GFP fluorescence (kMESF) was 11.3 kMESF (inactive).

`CC(=O)n1cc(C(C[N+](=O)[O-])SCCN)c2ccccc21` (stereo unspecified): the LAP4-GFP fluorescence (kMESF) is 4.35 kMESF (inactive).

Turning to `Cc1c(N2C(=O)/C(=C\c3ccccc3O)SC2=S)c(=O)n(-c2ccccc2)n1C`, the LAP4-GFP fluorescence (kMESF) was 10.8 kMESF (inactive).

Regarding `COC(=O)c1cc(N2C(=O)C3C(C2=O)C2(C)C=CC3(C)O2)ccc1Cl` (stereo unspecified), the LAP4-GFP fluorescence (kMESF) was 8.52 kMESF (inactive).

Regarding `O=C1ON=C(c2ccc(Cl)cc2)/C1=C/c1ccc(O)cc1`, the LAP4-GFP fluorescence (kMESF) was 6.72 kMESF (inactive).

With `O=C1C(Cl)=C(Nc2ccccc2O)C(=O)N1CCc1ccccc1`, the LAP4-GFP fluorescence (kMESF) was 5.01 kMESF (inactive).

`CC1(C(=O)NC(=S)NNC(=O)c2ccncc2)CCCCC1`: the LAP4-GFP fluorescence (kMESF) was 4.99 kMESF (inactive).

For the compound `O=C1C=C(Nc2ccc(Cl)cc2)C(=O)N1c1ccc(Cl)cc1`, the LAP4-GFP fluorescence (kMESF) was 3.03 kMESF (inactive).

In the case of `CCOc1cc(C=C2C(=O)c3ccccc3C2=O)ccc1OCC(=O)Nc1ccc(C)cc1`, the LAP4-GFP fluorescence (kMESF) is 3.87 kMESF (inactive).

As for `COc1ccc(CCNC2=C(Cl)C(=O)N(CCc3ccccc3)C2=O)cc1OC`, the LAP4-GFP fluorescence (kMESF) is 3.31 kMESF (inactive).

Take `Cc1ccc(C(=O)/C=C/C(=O)c2ccc(C)cc2)cc1`: the LAP4-GFP fluorescence (kMESF) was 6.7 kMESF (inactive).

`Cc1c(C)c2ccc(Oc3ccc([N+](=O)[O-])cc3C(F)(F)F)c(C)c2oc1=O`: the LAP4-GFP fluorescence (kMESF) was 3.47 kMESF (inactive).

Consider `COc1ccc(N/N=C(\C#N)C(N)=O)cc1`, for which the LAP4-GFP fluorescence (kMESF) was 13.2 kMESF (inactive).

Regarding `COc1cc(/C=C2\C(=O)ON=C2c2ccc(Cl)cc2)ccc1O`, the LAP4-GFP fluorescence (kMESF) was 9.12 kMESF (inactive).

`O=S(=O)(/N=C(/Sc1ccccc1)c1ccccc1)c1ccccc1`: the LAP4-GFP fluorescence (kMESF) was 11.4 kMESF (inactive).

With `Cc1nn2c(-c3ccncc3)nnc2c2ccccc12`, the LAP4-GFP fluorescence (kMESF) is 3.34 kMESF (inactive).

As for `Cc1cc(=O)oc2cc(Oc3ccc([N+](=O)[O-])cc3C(F)(F)F)ccc12`, the LAP4-GFP fluorescence (kMESF) is 3.64 kMESF (inactive).

Regarding `COc1cc(/C=C/[N+](=O)[O-])ccc1O`, the LAP4-GFP fluorescence (kMESF) was 7.18 kMESF (inactive).
